These results are taken from patent US20240360082A1, “SUBSTITUTED PYRIDONE COMPOUNDS USEFUL TO TREAT ORTH[…]” (priority 2021, published 2024).

In the first assay the target is influenza A virus minigenome (PB2, PB1, PA, NP proteins) (UniProt P04665). In kind it is cell-based. Particulars: read-out: RNP_ Hubei B IC50.
Chain of influenza A virus minigenome (PB2, PB1, PA, NP proteins) (P04665 whole entry): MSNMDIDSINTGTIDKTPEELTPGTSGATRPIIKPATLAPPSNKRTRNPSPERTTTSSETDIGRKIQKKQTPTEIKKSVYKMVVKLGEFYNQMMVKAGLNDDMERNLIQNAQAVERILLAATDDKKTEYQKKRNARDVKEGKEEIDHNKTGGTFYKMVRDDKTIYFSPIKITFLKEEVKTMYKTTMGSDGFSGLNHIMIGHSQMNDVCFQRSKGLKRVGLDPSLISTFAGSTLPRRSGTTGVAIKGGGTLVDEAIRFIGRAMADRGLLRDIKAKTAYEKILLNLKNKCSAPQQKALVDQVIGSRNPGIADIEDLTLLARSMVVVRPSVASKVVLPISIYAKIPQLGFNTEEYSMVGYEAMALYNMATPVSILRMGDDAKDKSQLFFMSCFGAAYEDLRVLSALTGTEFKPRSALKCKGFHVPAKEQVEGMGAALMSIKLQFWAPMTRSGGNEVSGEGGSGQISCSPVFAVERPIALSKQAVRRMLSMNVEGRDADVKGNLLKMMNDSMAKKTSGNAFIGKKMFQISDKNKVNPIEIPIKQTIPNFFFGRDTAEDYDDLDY
`CN1[C@H](COc2ccc(-c3cc(C(N)=O)c(=O)[nH]c3C(F)(F)F)cc2)COC[C@@H]1C1CC1` [Example 209, 5-(4-(((3S,5S)-5-cyclopropyl-4-methylmorpholin-3-yl)methoxy)phenyl)-2-oxo-6-(trifluoromethyl)-1,2-dihydropyridine-3-carboxamide]: the IC50 fell in the range of 5 to 10 µM. For the compound `CN1[C@@H](COc2ccc(-c3cc(C(N)=O)c(=O)[nH]c3C(F)(F)F)cc2)COC[C@@H]1C1CC1` [Example 210, 5-(4-(((3R,5S)-5-cyclopropyl-4-methylmorpholin-3-yl)methoxy)phenyl)-2-oxo-6-(trifluoromethyl)-1,2-dihydropyridine-3-carboxamide], the IC50 is 5 to 10 µM. On to `CC(C)[C@H]1COCC(COc2ccc(-c3cc(C(N)=O)c(=O)[nH]c3C(F)(F)F)cc2)N1C` (stereo partly drawn) [Example 211, 5-(4-(((5S)-5-isopropyl-4-methylmorpholin-3-yl)methoxy)phenyl)-2-oxo-6-(trifluoromethyl)-1,2-dihydropyridine-3-carboxamide], for which the IC50 is 1 to 5 µM. The same measure, in the same setting: with `CCn1nccc1COc1ccc(-c2cc(C(N)=O)c(=O)[nH]c2C(F)(F)F)cc1` [Example 217, 5-(4-((1-ethyl-1H-pyrazol-5-yl)methoxy)phenyl)-2-oxo-6-(trifluoromethyl)-1,2-dihydropyridine-3-carboxamide] the figure was 25 to 50 µM.

The assay is the same for the next values; noted with them: read-out: RNP_Hubei B.
On to `NC(=O)c1cc(-c2ccc(OCc3cnc4c(c3)ncn4CC3CC3)cc2)c(C(F)(F)F)[nH]c1=O` [Example 175, 5-(4-((3-(cyclopropylmethyl)-3H-imidazo[4,5-b]pyridin-6-yl)methoxy)phenyl)-2-oxo-6-(trifluoromethyl)-1,2-dihydropyridine-3-carboxamide], for which the IC50 was 25 to 50 µM. Same read-out and setting: with `NC(=O)c1cc(-c2ccc(OCc3ccc(Cl)nc3)cc2)c(C(F)(F)F)[nH]c1=O` [Example 176, 5-(4-((6-chloropyridin-3-yl)methoxy)phenyl)-2-oxo-6-(trifluoromethyl)-1,2-dihydropyridine-3-carboxamide] the figure was 25 to 50 µM. Still for that read-out and setting: the value for `NC(=O)c1cc(-c2ccc(COc3cccnc3)cc2)c(C(F)(F)F)[nH]c1=O` [Example 177, 2-oxo-5-(4-((pyridin-3-yloxy)methyl)phenyl)-6-(trifluoromethyl)-1,2-dihydropyridine-3-carboxamide] was 25 to 50 µM. Regarding `NC(=O)c1cc(-c2ccc(OCc3cncc(C4(O)COC4)c3)cc2)c(C(F)(F)F)[nH]c1=O` [Example 181, 5-(4-((5-(3-hydroxyoxetan-3-yl)pyridin-3-yl)methoxy)phenyl)-2-oxo-6-(trifluoromethyl)-1,2-dihydropyridine-3-carboxamide], the IC50 is 25 to 50 µM.

As for `NC(=O)c1cc(-c2ccc(OC(c3cccnc3)C3CC3)cc2)c(C(F)(F)F)[nH]c1=O` (stereo not shown) [Example 184, 5-(4-(cyclopropyl(pyridin-3-yl)methoxy)phenyl)-2-oxo-6-(trifluoromethyl)-1,2-dihydropyridine-3-carboxamide], the IC50 lay in the range of 10 to 25 µM. With `C=CCCC(Oc1ccc(-c2cc(C(N)=O)c(=O)[nH]c2C(F)(F)F)cc1)c1cccnc1` (stereo not shown) [Example 185, 2-oxo-5-(4-((1-(pyridin-3-yl)pent-4-en-1-yl)oxy)phenyl)-6-(trifluoromethyl)-1,2-dihydropyridine-3-carboxamide], the IC50 was in the range of 10 to 25 µM. Same read-out and setting: with `COCC(Oc1ccc(-c2cc(C(N)=O)c(=O)[nH]c2C(F)(F)F)cc1)c1cccnc1` (stereo not shown) [Example 186, 5-(4-(2-methoxy-1-(pyridin-3-yl)ethoxy)phenyl)-2-oxo-6-(trifluoromethyl)-1,2-dihydropyridine-3-carboxamide] the figure was 25 to 50 µM. For the compound `NC(=O)c1cc(-c2ccc(OCC3CNCCO3)cc2)c(C(F)(F)F)[nH]c1=O` (stereo not shown) [Example 189, 5-(4-(morpholin-2-ylmethoxy)phenyl)-2-oxo-6-(trifluoromethyl)-1,2-dihydropyridine-3-carboxamide], the IC50 is 25 to 50 µM. Still for that read-out and setting: with `CC(C)S(=O)(=O)N1CCOC(COc2ccc(-c3cc(C(N)=O)c(=O)[nH]c3C(F)(F)F)cc2)C1` (stereo not shown) [Example 191, 5-(4-((4-(isopropylsulfonyl)morpholin-2-yl)methoxy)phenyl)-2-oxo-6-(trifluoromethyl)-1,2-dihydropyridine-3-carboxamide] the figure was 25 to 50 µM. For the compound `NC(=O)c1cc(-c2ccc(OCC3CN(CC(F)F)CCO3)cc2)c(C(F)(F)F)[nH]c1=O` (stereo not shown) [Example 192, 5-(4-((4-(2,2-difluoroethyl)morpholin-2-yl)methoxy)phenyl)-2-oxo-6-(trifluoromethyl)-1,2-dihydropyridine-3-carboxamide], the IC50 was in the range of 25 to 50 µM. On the same count and under the same terms, the value for `COCCN1CCOC(COc2ccc(-c3cc(C(N)=O)c(=O)[nH]c3C(F)(F)F)cc2)C1` (stereo not shown) [Example 193, 5-(4-((4-(2-methoxyethyl)morpholin-2-yl)methoxy)phenyl)-2-oxo-6-(trifluoromethyl)-1,2-dihydropyridine-3-carboxamide] was 25 to 50 µM. Same read-out and setting: with `NC(=O)c1cc(-c2ccc(OCC3CN(CC4CC4)CCO3)cc2)c(C(F)(F)F)[nH]c1=O` (stereo not shown) [Example 194, 5-(4-((4-(cyclopropylmethyl)morpholin-2-yl)methoxy)phenyl)-2-oxo-6-(trifluoromethyl)-1,2-dihydropyridine-3-carboxamide] the figure was 25 to 50 µM; with `NC(=O)c1cc(-c2ccc(OCC3CNCCCO3)cc2)c(C(F)(F)F)[nH]c1=O` (stereo not shown) [Example 195, 5-(4-((1,4-oxazepan-2-yl)methoxy)phenyl)-2-oxo-6-(trifluoromethyl)-1,2-dihydropyridine-3-carboxamide], 25 to 50 µM. As to `NC(=O)c1cc(-c2ccc(OCC3CN(C4COC4)CCCO3)cc2)c(C(F)(F)F)[nH]c1=O` (stereo not shown) [Example 196, 5-(4-((4-(oxetan-3-yl)-1,4-oxazepan-2-yl)methoxy)phenyl)-2-oxo-6-(trifluoromethyl)-1,2-dihydropyridine-3-carboxamide], the IC50 was in the range of 25 to 50 µM.

As to `CC(C)CS(=O)(=O)N1CCCOC(COc2ccc(-c3cc(C(N)=O)c(=O)[nH]c3C(F)(F)F)cc2)C1` (stereo not shown) [Example 198, 5-(4-((4-(isobutylsulfonyl)-1,4-oxazepan-2-yl)methoxy)phenyl)-2-oxo-6-(trifluoromethyl)-1,2-dihydropyridine-3-carboxamide], the IC50 is 25 to 50 µM. In the case of `CN1C(COc2ccc(-c3cc(C(N)=O)c(=O)[nH]c3C(F)(F)F)cc2)COCC12COC2` (stereo not shown) [Example 206, 5-(4-((5-methyl-2,8-dioxa-5-azaspiro[3.5]nonan-6-yl)methoxy)phenyl)-2-oxo-6-(trifluoromethyl)-1,2-dihydropyridine-3-carboxamide], the IC50 was in the range of 25 to 50 µM. Same read-out and setting: the value for `CN1C(COc2ccc(-c3cc(C(N)=O)c(=O)[nH]c3C(F)(F)F)cc2)COCC1(C)C` (stereo not shown) [Example 207, 2-oxo-6-(trifluoromethyl)-5-(4-((4,5,5-trimethylmorpholin-3-yl)methoxy)phenyl)-1,2-dihydropyridine-3-carboxamide] was 5 to 10 µM; that for `C[C@H]1COCC(COc2ccc(-c3cc(C(N)=O)c(=O)[nH]c3C(F)(F)F)cc2)N1C` (stereo partly drawn) [Example 208, 5-(4-(((5S)-4,5-dimethylmorpholin-3-yl)methoxy)phenyl)-2-oxo-6-(trifluoromethyl)-1,2-dihydropyridine-3-carboxamide] was 5 to 10 µM.
